What was measured:
Assay type in all cases: functional
Setaria viridis [1] = test: Post-emergence herbicidal activity against Setaria viridis (green foxtail) assessed as growth inhibition at 150 ai g/ha after 20 days by green house test
Chenopodium album [2] = test: Post-emergence herbicidal activity against Chenopodium album assessed as growth inhibition at 75 ai g/ha after 20 days by green house test
Digitaria sanguinalis [3] = test: Post-emergence herbicidal activity against Digitaria sanguinalis (hairy crabgrass) assessed as growth inhibition at 75 ai g/ha after 20 days by green house test
Medicago sativa [4] = test: Post-emergence herbicidal activity against Medicago sativa (alfalfa) assessed as growth inhibition at 1500 ai g/ha after 20 days by green house test
Amaranthus retroflexus [5] = test: Post-emergence herbicidal activity against Amaranthus retroflexus assessed as growth inhibition at 1500 ai g/ha after 20 days by green house test
Abutilon theophrasti [6] = test: Post-emergence herbicidal activity against Abutilon theophrasti (velvetleaf) assessed as growth inhibition at 75 ai g/ha after 20 days by green house test
Abutilon theophrasti [7] = test: Pre-emergence herbicidal activity against Abutilon theophrasti (velvetleaf) assessed as growth inhibition at 450 ai g/ha after 20 days by green house test
[8] = tested on: Brassica rapa subsp. oleifera; test: Post-emergence herbicidal activity against Brassica rapa subsp. oleifera Si Yue Man assessed as growth inhibition at 1500 ai g/ha after 20 days by green house test
Echinochloa crus-galli [9] = test: Post-emergence herbicidal activity against Echinochloa crus-galli (barnyard grass) assessed as growth inhibition at 1500 ai g/ha after 20 days by green house test
Medicago sativa [10] = test: Pre-emergence herbicidal activity against Medicago sativa (alfalfa) assessed as growth inhibition at 1500 ai g/ha after 20 days by green house test
[11] = tested on: Brassica rapa subsp. oleifera; test: Pre-emergence herbicidal activity against Brassica rapa subsp. oleifera Si Yue Man assessed as growth inhibition at 1500 ai g/ha after 20 days by green house test
Amaranthus spinosus [12] = test: Pre-emergence herbicidal activity against Amaranthus spinosus assessed as growth inhibition at 75 ai g/ha after 20 days by green house test
Amaranthus spinosus [13] = test: Post-emergence herbicidal activity against Amaranthus spinosus assessed as growth inhibition at 150 ai g/ha after 20 days by green house test
Digitaria sanguinalis [14] = test: Post-emergence herbicidal activity against Digitaria sanguinalis (hairy crabgrass) assessed as growth inhibition at 1500 ai g/ha after 20 days by green house test
Digitaria sanguinalis [15] = test: Pre-emergence herbicidal activity against Digitaria sanguinalis (hairy crabgrass) assessed as growth inhibition at 1500 ai g/ha after 20 days by green house test
Chenopodium album [16] = test: Pre-emergence herbicidal activity against Chenopodium album assessed as growth inhibition at 450 ai g/ha after 20 days by green house test
Setaria viridis [17] = test: Pre-emergence herbicidal activity against Setaria viridis (green foxtail) assessed as growth inhibition at 75 ai g/ha after 20 days by green house test
Abutilon theophrasti [18] = test: Post-emergence herbicidal activity against Abutilon theophrasti (velvetleaf) assessed as growth inhibition at 450 ai g/ha after 20 days by green house test
Setaria viridis [19] = test: Pre-emergence herbicidal activity against Setaria viridis (green foxtail) assessed as growth inhibition at 150 ai g/ha after 20 days by green house test
Chenopodium album [20] = test: Post-emergence herbicidal activity against Chenopodium album assessed as growth inhibition at 150 ai g/ha after 20 days by green house test
Abutilon theophrasti [21] = test: Pre-emergence herbicidal activity against Abutilon theophrasti (velvetleaf) assessed as growth inhibition at 150 ai g/ha after 20 days by green house test
Amaranthus spinosus [22] = test: Pre-emergence herbicidal activity against Amaranthus spinosus assessed as growth inhibition at 150 ai g/ha after 20 days by green house test
Amaranthus retroflexus [23] = test: Pre-emergence herbicidal activity against Amaranthus retroflexus assessed as growth inhibition at 1500 ai g/ha after 20 days by green house test
Abutilon theophrasti [24] = test: Post-emergence herbicidal activity against Abutilon theophrasti (velvetleaf) assessed as growth inhibition at 150 ai g/ha after 20 days by green house test
Setaria viridis [25] = test: Pre-emergence herbicidal activity against Setaria viridis (green foxtail) assessed as growth inhibition at 450 ai g/ha after 20 days by green house test
Digitaria sanguinalis [26] = test: Pre-emergence herbicidal activity against Digitaria sanguinalis (hairy crabgrass) assessed as growth inhibition at 450 ai g/ha after 20 days by green house test
Chenopodium album [27] = test: Post-emergence herbicidal activity against Chenopodium album assessed as growth inhibition at 450 ai g/ha after 20 days by green house test
Abutilon theophrasti [28] = test: Pre-emergence herbicidal activity against Abutilon theophrasti (velvetleaf) assessed as growth inhibition at 75 ai g/ha after 20 days by green house test
Digitaria sanguinalis [29] = test: Post-emergence herbicidal activity against Digitaria sanguinalis (hairy crabgrass) assessed as growth inhibition at 450 ai g/ha after 20 days by green house test
Amaranthus spinosus [30] = test: Post-emergence herbicidal activity against Amaranthus spinosus assessed as growth inhibition at 450 ai g/ha after 20 days by green house test
Chenopodium album [31] = test: Pre-emergence herbicidal activity against Chenopodium album assessed as growth inhibition at 75 ai g/ha after 20 days by green house test
Amaranthus spinosus [32] = test: Pre-emergence herbicidal activity against Amaranthus spinosus assessed as growth inhibition at 450 ai g/ha after 20 days by green house test
Echinochloa crus-galli [33] = test: Pre-emergence herbicidal activity against Echinochloa crus-galli (barnyard grass) assessed as growth inhibition at 1500 ai g/ha after 20 days by green house test
Digitaria sanguinalis [34] = test: Pre-emergence herbicidal activity against Digitaria sanguinalis (hairy crabgrass) assessed as growth inhibition at 75 ai g/ha after 20 days by green house test
Setaria viridis [35] = test: Post-emergence herbicidal activity against Setaria viridis (green foxtail) assessed as growth inhibition at 450 ai g/ha after 20 days by green house test
Setaria viridis [36] = test: Post-emergence herbicidal activity against Setaria viridis (green foxtail) assessed as growth inhibition at 75 ai g/ha after 20 days by green house test
Chenopodium album [37] = test: Pre-emergence herbicidal activity against Chenopodium album assessed as growth inhibition at 150 ai g/ha after 20 days by green house test
Digitaria sanguinalis [38] = test: Pre-emergence herbicidal activity against Digitaria sanguinalis (hairy crabgrass) assessed as growth inhibition at 150 ai g/ha after 20 days by green house test
Digitaria sanguinalis [39] = test: Post-emergence herbicidal activity against Digitaria sanguinalis (hairy crabgrass) assessed as growth inhibition at 150 ai g/ha after 20 days by green house test
Amaranthus spinosus [40] = test: Post-emergence herbicidal activity against Amaranthus spinosus assessed as growth inhibition at 75 ai g/ha after 20 days by green house test

SMILES	growth inhibition (GI) (Setaria viridis [1]) [%]	growth inhibition (GI) (Medicago sativa [4]) [%]	growth inhibition (GI) (Amaranthus retroflexus [5]) [%]	growth inhibition (GI) (Abutilon theophrasti [7]) [%]	growth inhibition (GI) [8] [%]	growth inhibition (GI) (Echinochloa crus-galli [9]) [%]	growth inhibition (GI) (Medicago sativa [10]) [%]	growth inhibition (GI) [11] [%]	growth inhibition (GI) (Amaranthus spinosus [13]) [%]	growth inhibition (GI) (Digitaria sanguinalis [14])	growth inhibition (GI) (Digitaria sanguinalis [15]) [%]	growth inhibition (GI) (Chenopodium album [16]) [%]	growth inhibition (GI) (Abutilon theophrasti [18]) [%]	growth inhibition (GI) (Setaria viridis [19]) [%]	growth inhibition (GI) (Chenopodium album [20]) [%]	growth inhibition (GI) (Abutilon theophrasti [21]) [%]	growth inhibition (GI) (Amaranthus spinosus [22]) [%]	growth inhibition (GI) (Amaranthus retroflexus [23]) [%]	growth inhibition (GI) (Abutilon theophrasti [24]) [%]	growth inhibition (GI) (Setaria viridis [25]) [%]	further results
COP(=O)(OC)C(OC(=O)COc1ccc(Cl)cc1C)c1cccc([N+](=O)[O-])c1 (stereo not given)	0	50	90	0	75	75	75	50	100	<=50%	90	0	100	0	82.5	0	0	75	90	0	growth inhibition (GI) (Chenopodium album [2]): 52.5%; growth inhibition (GI) (Digitaria sanguinalis [3]): 0%; growth inhibition (GI) (Abutilon theophrasti [6]): 50%; growth inhibition (GI) (Amaranthus spinosus [12]): 0%; growth inhibition (GI) (Setaria viridis [17]): 0%; growth inhibition (GI) (Digitaria sanguinalis [26]): 0%; growth inhibition (GI) (Chenopodium album [27]): 100%; growth inhibition (GI) (Abutilon theophrasti [28]): 0%; growth inhibition (GI) (Digitaria sanguinalis [29]): 10%; growth inhibition (GI) (Amaranthus spinosus [30]): 100%; growth inhibition (GI) (Chenopodium album [31]): 0%; growth inhibition (GI) (Amaranthus spinosus [32]): 0%; growth inhibition (GI) (Echinochloa crus-galli [33]): 90%; growth inhibition (GI) (Digitaria sanguinalis [34]): 0%; growth inhibition (GI) (Setaria viridis [35]): 0%; growth inhibition (GI) (Setaria viridis [36]): 0%; growth inhibition (GI) (Chenopodium album [37]): 0%; growth inhibition (GI) (Digitaria sanguinalis [38]): 0%; growth inhibition (GI) (Digitaria sanguinalis [39]): 0%; growth inhibition (GI) (Amaranthus spinosus [40]): 50%
COP(=O)(OC)C(C)OC(=O)COc1ccc(Cl)cc1C (stereo not given)	0	50	90	0	90	50	90	90	10	50%	90	0	96	0	60	0	0	90	82	0	growth inhibition (GI) (Digitaria sanguinalis [26]): 16%; growth inhibition (GI) (Chenopodium album [27]): 80%; growth inhibition (GI) (Digitaria sanguinalis [29]): 10%; growth inhibition (GI) (Amaranthus spinosus [30]): 100%; growth inhibition (GI) (Amaranthus spinosus [32]): 30%; growth inhibition (GI) (Echinochloa crus-galli [33]): 90%; growth inhibition (GI) (Setaria viridis [35]): 0%; growth inhibition (GI) (Chenopodium album [37]): 0%; growth inhibition (GI) (Digitaria sanguinalis [38]): 0%; growth inhibition (GI) (Digitaria sanguinalis [39]): 0%
